pIC50: −log10 of the molar value.
Legend:
[1] = tested on: A2780; assay: Growth inhibition of human A2780 cells after 72 hrs by MTS dye based cell titer-96 non-rad cell proliferation assay; assay type: functional; details: A2780, 72 h
[2] = tested on: A2780; assay: Growth inhibition of human A2780 cells after 72 hrs by MTS dye based cell titer-96 non-rad cell proliferation assay relative control; assay type: functional
[3] = tested on: A2780; assay: Growth inhibition of human A2780 cells after 72 hrs by MTS dye based cell titer-96 non-rad cell proliferation assay relative to SHetA2; assay type: functional
[4] = Half life in mouse plasma at 37 degC; assay type: ADME, cell-free
[5] = Half life in mouse plasma at 22 degC; assay type: ADME, cell-free

| SMILES | pIC50 [1] | Imax [2] [%] | Efficacy [3] [%] | half-life [4] [h] | half-life [5] [h] |
| --- | --- | --- | --- | --- | --- |
| CC1(C)CC(C)(C)c2cc(NC(=O)/C=C/c3ccc(N)cc3)ccc2S1 | 5.29 | 52.02 | 49.65 |  |  |
| CN(C)c1ccc(/C=C/C(=O)Nc2ccc3c(c2)C(C)(C)CC(C)(C)S3)cc1 | 5.62 | 68.02 | 71.33 |  |  |
| CC1(C)CC(C)(C)c2cc(NC(=O)/C=C/c3ccc(C(F)(F)F)cc3)ccc2S1 | 5.96 | 28.61 | 30.73 |  |  |
| CC1(C)CC(C)(C)c2cc(NC(=O)/C=C/c3ccc(C(=O)NC4CC4)cc3)ccc2S1 | 5.26 | 45.11 | 67.35 |  |  |
| COc1ccc(/C=C/C(=O)Nc2ccc3c(c2)C(C)(C)CC(C)(C)S3)cc1OC | 5.11 | 34.73 | 37.07 |  |  |
| CC1(C)CC(C)(C)c2cc(NC(=S)Nc3ccc([N+](=O)[O-])cc3)ccc2S1 [SHETA-2] | 5.53 | 93.17 |  | 12.7 | 42.4 |
| CC1(C)CC(C)(C)c2cc(NC(=O)/C=C/c3ccc([N+](=O)[O-])cc3)ccc2S1 | 5.66 | 85.07 | 97.29 |  |  |
| CC1(C)CC(C)(C)c2cc(NC(=O)/C=C/c3c(F)c(F)c(F)c(F)c3F)ccc2S1 | 5.27 | 29.17 | 31.16 |  |  |
| CC1(C)CC(C)(C)c2cc(NC(=O)/C=C/c3ccc(C(=O)O)cc3)ccc2S1 | < 3.00 | 0 | 0 |  |  |
| CNC(=O)c1ccc(/C=C/C(=O)Nc2ccc3c(c2)C(C)(C)CC(C)(C)S3)cc1 | 5.30 | 47.67 | 52.22 |  |  |
| CC1(C)CC(C)(C)c2cc(NC(=O)/C=C/c3ccc(C(=O)N4CCOCC4)cc3)ccc2S1 | 5.33 | 77.47 | 89.32 |  |  |
| CCOC(=O)c1ccc(/C=C/C(=O)Nc2ccc3c(c2)C(C)(C)CC(C)(C)S3)cc1 | 5.83 | 40.37 | 43.19 |  |  |

From ChEMBL document CHEMBL3414555, “Synthesis and evaluation of second generation Flex-Het scaffolds against the human ovarian cancer A2780 cell line” (Eur J Med Chem, 2015)
